Experimental data published in patent EP1082127B1 (WARNER-LAMBERT COMPANY LLC, priority 1998, dated 1999).
Where a name gives a salt, the structure may show the parent alone.

Legend:
[1] = target: T1, ICE (Homo sapiens, UniProt P29466); assay: ICE inhibition, Ki determination (fluorogenic substrate Ac-Tyr-Val-Ala-Asp-AMC); type: biochemical; settings: 15 µM Ac-Tyr-Val-Ala-Asp-AMC, 0.5 nM enzyme, 30°C, reversible competitive model
T1 sequence (P29466 120-297 limits assumed): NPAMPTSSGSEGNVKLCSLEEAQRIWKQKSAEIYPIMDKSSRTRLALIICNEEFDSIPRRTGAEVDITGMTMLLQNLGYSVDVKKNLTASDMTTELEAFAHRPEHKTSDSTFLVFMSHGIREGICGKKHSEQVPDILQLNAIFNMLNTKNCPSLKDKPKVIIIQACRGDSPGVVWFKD
T1 sequence (P29466 317-404 limits assumed): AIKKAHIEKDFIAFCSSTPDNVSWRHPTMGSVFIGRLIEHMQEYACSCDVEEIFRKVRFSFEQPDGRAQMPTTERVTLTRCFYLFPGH

[2] = target: T1, ICE; assay: ICE Colorimetric Dose-Response (IC50) Assay; type: biochemical; settings: 60 minutes preincubation, 50 µM Ac-Tyr-Val-Ala-Asp-pNA, 25°C
Method in brief: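 Human ICE (~24 nM in HGE buffer, pH 7.5, activated with 5 mM DTT) preincubated 60 min at ambient temperature with two-fold serial inhibitor dilutions, in triplicate. Ac-Tyr-Val-Ala-Asp-pNA added at 50 µM; A405 followed for 1 h at 25°C starting 5 min after substrate, activity taken as mean rate.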

[3] = test system: IL-1β production in human peripheral blood mononuclear cells (PBMCs); assay: PBMC Cellular Assay - IC50 Determinations (LPS-stimulated IL-1β production, ELISA); type: cell-based; settings: human PBMCs stimulated overnight with 10 ng/mL LPS, mature IL-1β by ELISA
Method in brief: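 Ficoll-isolated human PBMCs (10^6/well, RPMI with 2% human AB serum) were stimulated overnight with LPS 10 ng/mL (E. coli 0111:B4) with or without compound. Mature IL-1β in medium measured by ELISA; viability checked by MTT over a further 4 h.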

[4] = target: T2, Ich-2 enzyme (Homo sapiens, UniProt P49662); assay: Ich-2 Colorimetric Dose-Response (IC50) Assay; type: biochemical; settings: enzyme 64 nM, 60 µM Ac-Leu-Glu-Val-Asp-pNA; read-out: ICH2 IC50 (Caspase 4)
T2 sequence (P49662 81-270 limits assumed): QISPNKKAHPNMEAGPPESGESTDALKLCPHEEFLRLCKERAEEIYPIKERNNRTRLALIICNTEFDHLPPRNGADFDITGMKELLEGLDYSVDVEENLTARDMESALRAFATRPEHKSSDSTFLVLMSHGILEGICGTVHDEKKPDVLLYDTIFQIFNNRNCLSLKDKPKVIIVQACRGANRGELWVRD
T2 sequence (P49662 290-377 limits assumed): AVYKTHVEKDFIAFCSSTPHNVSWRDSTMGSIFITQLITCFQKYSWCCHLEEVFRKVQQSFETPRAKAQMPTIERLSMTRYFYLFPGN
Method in brief: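 Enzyme at 64 nM in HGE buffer (Hepes pH 7.5, EDTA, glycerol, BSA), activated with 5 mM DTT, preincubated 60 min at ambient temperature with two-fold serially diluted inhibitor, in triplicate. Ac-Leu-Glu-Val-Asp-pNA added at 60 µM; A405 followed for 1 h at 25°C, rate used as activity.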

Ki [1] [µM] | IC50 [2] [µM] | IC50 [4] [µM] | Compound | IC50 [3] [µM]
0.539 | 3.27 | 25.7 | CC(C)C(CC(=O)NCCc1ccccc1)C(=O)NC(CC(=O)O)C(=O)CSCCCc1ccccc1 (stereo not drawn) [Example 10, 3-[3-Methyl-2-(phenethylcarbamoyl-methyl)-butyrylamino]-4-oxo-5-(3-phenyl-propylsulfanyl)-pentanoic acid] | 21.5
2.18 | 16.8 | 9.72 | CC(C)C(CC(N)=O)C(=O)NC(CC(=O)O)C(=O)CNS(=O)(=O)CCc1ccccc1 (stereo not drawn) [Example 4, 3-(2-Carbamoylmethyl-3-methyl-butyrylamino)-4-oxo-5-(2-phenyl-ethanesulfonyl-amino)-pentanoic acid] | 65
0.0067 | 0.052 | 0.25 | CC(C)C(CC(=O)NCCCc1ccccc1)C(=O)NC(CC(=O)O)C(=O)COc1ccc2oc(=O)ccc2c1 (stereo not drawn) [Example 13, 3-{3-Methyl-2-[(3-phenyl-propylcarbamoyl)-methyl]-butyrylamino}-4-oxo-5-(2-oxo-2H-chromen-6-yloxy)-pentanoic acid] | 2.35
0.0061 | 0.254 | 5.58 | CC(C)C(CC(=O)NCCCc1cccc2ccccc12)C(=O)NC(CC(=O)O)C(=O)CNS(=O)(=O)CC12CCC(CC1=O)C2(C)C (stereo not drawn) [Example 28, 5-(7,7-Dimethyl-2-oxo-bicyclo[2.2.1]hept-1-ylmethanesulfonylamino)-3-{3-methyl-2-[(3-naphthalen-1-yl-propylcarbamoyl)-methyl]-butyrylamino}-4-oxo-pentanoic acid] | 0.55

Continued, molecule first:

Compound | Ki [1] [µM] | IC50 [2] [µM] | IC50 [4] [µM] | IC50 [3] [µM]
CC(C)C(CC(=O)NCCc1nnn[nH]1)C(=O)NC(CC(=O)O)C(=O)CNS(=O)(=O)CC12CCC(CC1=O)C2(C)C (stereo not drawn) [Example 34, 5-(7,7-Dimethyl-2-oxo-bicyclo[2.2.1]hept-1-ylmethanesulfonylamino)-3-(3-methyl-2-{[2-(1H-tetrazol-5-yl)-ethylcarbamoyl]-methyl}-butyrylamino)-4-oxo-pentanoic acid] | 0.0166 | 0.115 | 1.1 | 2.6
CC(C)C(CC(=O)N(C)CCn1cnc2ccccc21)C(=O)NC(C=O)CC(=O)O (stereo not drawn) [Example 57, 3-(2-{[(2-Benzoimidazol-1-yl-ethyl)-methyl-carbamoyl]-methyl}-3-methyl-butyrylamino)-4-oxo-butyric acid] | 0.0229 | 0.227 | 38 | 3.75
CC(C)C(CC(=O)NCCc1c[nH]c2cc(F)ccc12)C(=O)NC(CC(=O)O)C(=O)CNS(=O)(=O)CC12CCC(CC1=O)C2(C)C (stereo not drawn) [Example 20, 5-(7,7-Dimethyl-2-oxo-bicyclo[2.2.1]hept-1-ylmethanesulfonylamino)-3-(2-{[2-(6-fluoro-1H-indol-3-yl)-ethylcarbamoyl]-methyl}-3-methyl-butyrylamino)-4-oxo-pentanoic acid] | 0.0015 | 0.011 | 62 | 2.45
CC(=O)c1ccc2[nH]cc(CCNC(=O)CC(C(=O)NC(CC(=O)O)C(=O)CNS(=O)(=O)CC34CCC(CC3=O)C4(C)C)C(C)C)c2c1 (stereo not drawn) [Example 33, 3-(2-{[2-(5-Acetyl-1H-indol-3-yl)-ethylcarbamoyl]-methyl}-3-methyl-butyrylamino)-5-(7,7-dimethyl-2-oxo-bicyclo[2.2.1]hept-1-ylmethanesulfonylamino)-4-oxo-pentanoic acid] | 0.0065 | 0.023 | 3.09 | 1.6
Cc1cc2ncn(CCNC(=O)CC(C(=O)NC(C=O)CC(=O)O)C(C)C)c2cc1C (stereo not drawn) [Example 23, 3-(2-{[2-(5,6-Dimethyl-benzoimidazol-1-yl)-ethylcarbamoyl]-methyl}-3-methyl-butyrylamino)-4-oxo-butyric acid, trifluoroacetate salt] | 0.0029 | 0.0145 | 4.43 | 3.6
